Experimental data: US11110126B2, “Method of expanding NK cell and composition for culturing” (Korea University Research and Business Foundation, priority 2015, dated 2021)

Assays:
[1] = test system: NK cells; assay: ROS generation in in vitro-expanded NK cells (DCF-DA flow cytometry); type: cell-based, human; settings: 100 μM DCF-DA; for order of ROS generation among treated groups: rank order of groups, lowest ROS first
Procedure: To measure ROS generated in in vitro-expanded NK cells, NK cells cultured by treatment with an inhibitor individually or in combination were harvested. 1×10^6 cells were seeded per well in a 24-well plate, cultured in a 5% CO2 incubator for 30 minutes, and then collected. The cells were washed once with 1 ml of PBS, followed by flow cytometry using 100 μM DCF-DA. The experiment was performed on a control group which was not treated, and experimental groups treated with apocynin, trolox, pifithrin-α and trolox+pifithrin-α, respectively, and the results are shown in FIG. 9.

[2] = test system: NK cells; assay: Influence of ROS and/or p53 inhibitor on ex-vivo culture (expansion) of NK cells, cell number by hemocytometer; type: cell-based, human; settings: PBMC-derived NK cells cultured 10 days, then inhibitor at three-day intervals, counted after culture for 2 weeks; apocynin 400 μM, trolox 50 μM, pifithrin-α 1 μM, combination 50 μM trolox + 500 nM pifithrin-α
Procedure: Human blood was prepared, and subjected to centrifugation at 2500 rpm for 30 minutes using Ficoll (Ficoll-Paque™ PLUS, GE Healthcare). Then, peripheral blood mononuclear cells were isolated from a buffy coat. Afterward, a Jurkat cell line irradiated at 100 Gy and an EBV-LCL cell line were co-cultured with PBMCs:KL-1:EBV-LCL in a ratio of 1:0.5:0.5 in hRPMI medium prepared by adding 10% FBS and 1% penicillin/streptomycin to RPMI1640 medium in the presence of 500 U/ml IL-2, and the medium was exchanged with hRPMI medium supplemented with 500 U/ml IL-2 once for 2 to 3 days. To examine the influence of an ROS inhibitor on NK cells, the NK cells were cultured for 10 days under the conditions of Preparation Example 1. Then, 400 μM of an apocynin (Calbiochem), 50 μM of trolox (Santa Cruz) and 1 μM of pifithrin-α (Santa Cruz) were treated individually, and 50 μM trolox and 500 nM pifithrin-α were treated in a combination. The inhibitor was treated at three-day intervals, and a cell number was assessed after culture for 2 weeks. Here, the medium was exchanged with hRPMI medium added with 500 U/ml of IL-2 once for three days, and a cell number was calculated using a hemocytometer.

SMILES	order of ROS generation among treated groups [1]	NK cell number compared with the control group [2]	ROS generation compared with the control group ([1]; NK cells cultured with inhibitor)
Br.Cc1ccc(C(=O)Cn2c3c(sc2=N)CCCC3)cc1 [pifithrin-α, 2-(2-imino-4,5,6,7-tetrahydrobenzothiazol-3-yl)-1-p-tolylethanone hydrobromide]	trolox<pifithrin-α<trolox+pifithrin-α<apocynin<control group	statistically significant increase	–
COc1cc(C(C)=O)ccc1O [apocynin, 1-(4-hydroxy-3-methoxyphenyl)-ethanone]	trolox<pifithrin-α<trolox+pifithrin-α<apocynin<control group	statistically significant increase	–
Cc1c(C)c2c(c(C)c1O)CCC(C)(C(=O)O)O2 (stereo not shown) [trolox, 6-hydroxy-2,5,7,8-tetramethylchroman-2-carboxylic acid]	trolox<pifithrin-α<trolox+pifithrin-α<apocynin<control group	statistically significant increase	significantly decreased
